Test results from patent US12151021B2, “Implantable nanochannel delivery devices” (THE METHODIST HOSPITAL SYSTEM, priority 2015, dated 2024).
Structures can show the parent of a compound that is named as a salt. Where two headings read alike, the source gives them in different places.

How the values were obtained:
[1] = Doxorubicin release in vitro from nanochannel capsules (UV-Vis at 479 nm); type: physicochemical; conditions: in 4 days; capsules with 20 nm nanochannels, loading solution 0.58 mg/ml, 23 °C, n=5
Protocol: Doxorubicin loaded nanochannel capsules (n=5) were immersed in 400 μl of Millipore water in microvolume spectroscopy cuvettes sealed with tight-fitting lids. Absorbance measures were taken every 10 min for 9 days at 479 nm by a custom-built robotic carousel (Quantum Northwest, Inc.) connected to a UV-Vis spectrophotometer (Cary 50, Agilent Technologies, Inc.). The 479 nm wavelength was selected as optimal for doxorubicin with this system by prior full spectrum analysis. The cuvettes were maintained at 23±0.3° C. for the duration of the experiment. Data were normalized with respect to a Millipore water blank, and the cumulative release of the agents was obtained through comparison to a standard curve.
The nanochannel capsules were loaded with Doxorubicin and placed in isotonic conditions in vitro to characterize their release kinetics. The nanochannel capsules were immersed in PBS within microvolume cuvettes, which were sealed with tight-fitting lids. Release into the sink solution was measured via absorbance measurements at 479 nm by a robotic 48-cell carousel (Quantum Northwest, Inc.) linked to a UV-Vis Spectrophotometer (Cary 50, Agilent Technologies, Inc.). Overall drug release was evaluated via comparison of measured absorbances to standard curves following normalization with respect to initial conditions (t=0).

[2] = design: species or system C57B16 mice; conditions: mouse, in vivo
Protocol: All animal procedures described herein followed IACUC protocols approved by their requisite institutions. C57B16 mice were implanted with 10^6 melanoma cells (B16F10) in the upper thigh (n=5). Once tumors reached 12 mm in its longer axis, sterile nanochannel implants loaded with 470 mg/ml of Magnevist were percutaneously implanted into the tumors with a 15 G, percutaneous trocar at a 90°angle from the axial axis of the tumor. Briefly, rodents were anesthetized with 3% isofluorane and immobilized within a sterile field. The percutaneous implantation site was cleaned with chlorhexidine and 70% ethanol and all nearby hair was shaved. The trocar was inserted to the target depth of approximately 5 mm. The nanochannel capsule was extruded through manual pressure with the obturator and the trocar was removed. A single drop of bupivicaine was added to the implantation site. The implantation site was closed with suture to ensure implant immobility and restrict animal agitation of the site. The mice had secondary heating maintained throughout the procedure and until they recovered from anesthesia.
For the in vivo MR imaging, T1- and T2-weighted images were acquired axially with respect to the laboratory frame of reference on a 7 T Bruker BioSpec Scanner (Bruker Biospin, Billerica, MA, USA). […]

[3] = Magnevist release in vitro from PEEK nanochannel capsules (MR T1 mapping); type: physicochemical; conditions: at plateau beginning by Day 3; 47 mg/ml loading, PBS, 37 °C, n=4; approximation based on loading concentration
Protocol: The drug eluting fiducial markers were loaded with a number of different molecules to examine release kinetics into simulated physiological solution in vitro. In a series of experiments, the implants were loaded with ˜2.5 μL of OX86, FGK45, or Magnevist, placed in a 70 μL cuvette, and immersed in PBS. The cuvettes were sealed with tight-fitting lids and kept in an incubator at 37° C. The PBS solution was sampled and replaced daily. The OX86 and FGK45 release was quantified by micro-BCA assay (Sigma-Aldrich). The Magnevist was quantified through MR scanning. (7 T magnet, cut-down 96-well plate in a wrist coil). An additional experiment for quantifying IgG release was conducted similarly, but at room temperature and quantified via UV-Vis spectroscopy at 280 nm sampled every 10 minutes.
PEEK nanochannel capsules loaded with Magnevist (n=4) were immersed in 500 μl of PBS in microvolume cuvettes sealed with tight-fitting lids. These microvolume cuvettes were then placed in a 37° C. incubator. The 500 μl of sink solution were sampled and replaced daily for 7 days. The sink samples were stored at 4° C. Magnevist concentration within the samples was quantified through MR imaging of the samples within a custom-built 49 well plate (7×7) with 300 μl well volumes. […]

[4] = from BioNumbers (Milo et al.), cited from earlier work

COc1cccc2c1C(=O)c1c(O)c3c(c(O)c1C2=O)C[C@@](O)(C(=O)CO)C[C@@H]3O[C@H]1C[C@H](N)[C@H](O)[C@H](C)O1 [Doxorubicin, Doxorubicin hydrochloride salt]
release depleted fraction of the reservoir volume [1]: around 80%

CNC[C@H](O)[C@@H](O)[C@H](O)[C@H](O)CO.CNC[C@H](O)[C@@H](O)[C@H](O)[C@H](O)CO.O=C([O-])CN(CCN(CC(=O)[O-])CC(=O)O)CCN(CC(=O)[O-])CC(=O)O.[Gd+3] [Magnevist, gadopentetate dimeglumine]
distance from implant's exterior at which observable enhancement begins [2]: 2-5 mm | thickness of band of observable enhancement [2]: approximately 1 mm | loaded Magnevist released [3]: 85%

Immunoglobulin G
hydrodynamic radius [4]: 6.4 nm | hydrodynamic radius ([4]; listed as IgG isotype immunoproteins): approximately 6.4 nm
